Results: patent publication US10815230B2, “Casein kinase 1 delta inhibitor” (ELECTROPHORETICS LIMITED, priority 2015, dated 2020)

Experiments:
Assay in all cases: KINOMEscan binding assay
Details in all cases: read-out: % Ctrl @ 10000 nM
[1] = target: RSK1 Kin.Dom.2-C-terminal (Homo sapiens, UniProt Q15418)
PAK3 = PAK3 (Homo sapiens, UniProt O75914)
IKK-alpha = IKK-alpha (Homo sapiens, UniProt O15111)
ASK2 = ASK2 (Homo sapiens, UniProt O95382)
NIK = NIK (Homo sapiens, UniProt Q99558)
AURKA = AURKA (Homo sapiens, UniProt O14965)
EPHA4 = EPHA4 (Homo sapiens, UniProt P54764)
PKAC-alpha = PKAC-alpha (Homo sapiens, UniProt P17612)
CSNK1A1L = CSNK1A1L (Homo sapiens, UniProt Q8N752)
TAOK3 = TAOK3 (Homo sapiens, UniProt Q9H2K8)
MAP4K4 = target: T1, MAP4K4 (Homo sapiens, UniProt O95819)
T1 construct: T7 phage fusion (most assays) or DNA label after HEK293 expression; purchased DiscoveRx (KINOMEscan, LeadHunter Discovery services); host or cells: T7 phage in E. coli (BL21-derived) or HEK293
T1 sequence (O95819 whole entry, the tested form may be a part): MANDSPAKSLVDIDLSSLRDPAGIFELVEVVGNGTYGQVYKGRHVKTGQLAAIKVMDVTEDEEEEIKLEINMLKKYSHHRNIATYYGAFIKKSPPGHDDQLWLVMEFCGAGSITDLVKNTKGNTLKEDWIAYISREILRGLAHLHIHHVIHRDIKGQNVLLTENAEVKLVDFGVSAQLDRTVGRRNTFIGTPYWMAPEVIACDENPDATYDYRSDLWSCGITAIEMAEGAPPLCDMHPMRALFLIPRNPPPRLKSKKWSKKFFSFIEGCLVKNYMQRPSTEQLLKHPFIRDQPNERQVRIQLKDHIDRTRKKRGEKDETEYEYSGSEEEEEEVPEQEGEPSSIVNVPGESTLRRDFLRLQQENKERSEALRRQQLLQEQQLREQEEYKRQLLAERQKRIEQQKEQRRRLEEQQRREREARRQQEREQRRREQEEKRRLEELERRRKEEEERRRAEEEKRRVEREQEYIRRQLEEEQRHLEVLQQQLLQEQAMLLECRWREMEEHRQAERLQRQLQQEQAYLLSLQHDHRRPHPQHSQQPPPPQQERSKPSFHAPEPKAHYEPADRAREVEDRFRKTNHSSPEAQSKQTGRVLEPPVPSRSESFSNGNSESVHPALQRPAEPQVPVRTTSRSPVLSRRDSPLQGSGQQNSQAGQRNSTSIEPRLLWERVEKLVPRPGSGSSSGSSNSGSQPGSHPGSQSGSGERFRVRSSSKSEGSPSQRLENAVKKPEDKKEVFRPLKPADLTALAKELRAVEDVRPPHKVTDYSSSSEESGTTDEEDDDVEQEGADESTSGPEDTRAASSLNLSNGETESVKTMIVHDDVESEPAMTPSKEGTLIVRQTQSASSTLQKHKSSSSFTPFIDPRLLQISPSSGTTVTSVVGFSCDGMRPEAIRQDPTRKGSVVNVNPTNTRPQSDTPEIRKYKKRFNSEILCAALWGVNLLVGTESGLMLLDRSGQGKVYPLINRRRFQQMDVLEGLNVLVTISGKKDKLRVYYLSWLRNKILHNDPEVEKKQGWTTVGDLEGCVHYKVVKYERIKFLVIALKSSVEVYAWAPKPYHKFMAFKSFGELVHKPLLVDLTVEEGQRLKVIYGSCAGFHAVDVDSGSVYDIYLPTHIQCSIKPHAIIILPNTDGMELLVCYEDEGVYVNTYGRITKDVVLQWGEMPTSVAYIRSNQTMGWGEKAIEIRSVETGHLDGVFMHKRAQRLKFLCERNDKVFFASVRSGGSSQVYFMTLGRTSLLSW

PHKG2 = PHKG2 (Homo sapiens, UniProt P15735)
Chain of PHKG2 (P15735 whole entry): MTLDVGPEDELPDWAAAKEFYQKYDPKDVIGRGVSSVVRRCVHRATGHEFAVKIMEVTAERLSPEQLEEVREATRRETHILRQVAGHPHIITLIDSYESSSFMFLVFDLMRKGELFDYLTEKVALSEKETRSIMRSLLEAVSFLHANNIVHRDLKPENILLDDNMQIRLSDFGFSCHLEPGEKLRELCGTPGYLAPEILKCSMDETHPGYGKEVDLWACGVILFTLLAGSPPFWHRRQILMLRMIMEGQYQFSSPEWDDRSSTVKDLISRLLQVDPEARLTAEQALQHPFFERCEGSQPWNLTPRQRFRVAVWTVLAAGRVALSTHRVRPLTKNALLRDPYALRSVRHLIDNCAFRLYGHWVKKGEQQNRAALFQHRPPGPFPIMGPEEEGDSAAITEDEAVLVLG

TNIK = TNIK (Homo sapiens, UniProt Q9UKE5)
ADCK4 = ADCK4 (Homo sapiens, UniProt Q96D53)
SNARK = SNARK (Homo sapiens, UniProt Q9H093)
SRPK3 = SRPK3 (Homo sapiens, UniProt Q9UPE1)
CHEK1 = CHEK1 (Homo sapiens, UniProt O14757)
STK39 = STK39 (Homo sapiens, UniProt Q9UEW8)
LATS2 = LATS2 (Homo sapiens, UniProt Q9NRM7)
PIK3CA (M1043I) = PIK3CA (M1043I) (Homo sapiens, UniProt P42336, M1043I)
SIK = SIK (Homo sapiens, UniProt P57059)
EPHA7 = EPHA7 (Homo sapiens, UniProt Q15375)
GRK7 = GRK7 (Homo sapiens, UniProt Q8WTQ7)
DCAMKL1 = DCAMKL1 (Homo sapiens, UniProt O15075)
[2] = target: EGFR (L747-E749del, A750P) (Homo sapiens, UniProt P00533, A750P/DEL747-749)
ROS1 = ROS1 (Homo sapiens, UniProt P08922)
MRCKB = MRCKB (Homo sapiens, UniProt Q9Y5S2)
ABL2 = ABL2 (Homo sapiens, UniProt P42684)
Chain of ABL2 (P42684 whole entry): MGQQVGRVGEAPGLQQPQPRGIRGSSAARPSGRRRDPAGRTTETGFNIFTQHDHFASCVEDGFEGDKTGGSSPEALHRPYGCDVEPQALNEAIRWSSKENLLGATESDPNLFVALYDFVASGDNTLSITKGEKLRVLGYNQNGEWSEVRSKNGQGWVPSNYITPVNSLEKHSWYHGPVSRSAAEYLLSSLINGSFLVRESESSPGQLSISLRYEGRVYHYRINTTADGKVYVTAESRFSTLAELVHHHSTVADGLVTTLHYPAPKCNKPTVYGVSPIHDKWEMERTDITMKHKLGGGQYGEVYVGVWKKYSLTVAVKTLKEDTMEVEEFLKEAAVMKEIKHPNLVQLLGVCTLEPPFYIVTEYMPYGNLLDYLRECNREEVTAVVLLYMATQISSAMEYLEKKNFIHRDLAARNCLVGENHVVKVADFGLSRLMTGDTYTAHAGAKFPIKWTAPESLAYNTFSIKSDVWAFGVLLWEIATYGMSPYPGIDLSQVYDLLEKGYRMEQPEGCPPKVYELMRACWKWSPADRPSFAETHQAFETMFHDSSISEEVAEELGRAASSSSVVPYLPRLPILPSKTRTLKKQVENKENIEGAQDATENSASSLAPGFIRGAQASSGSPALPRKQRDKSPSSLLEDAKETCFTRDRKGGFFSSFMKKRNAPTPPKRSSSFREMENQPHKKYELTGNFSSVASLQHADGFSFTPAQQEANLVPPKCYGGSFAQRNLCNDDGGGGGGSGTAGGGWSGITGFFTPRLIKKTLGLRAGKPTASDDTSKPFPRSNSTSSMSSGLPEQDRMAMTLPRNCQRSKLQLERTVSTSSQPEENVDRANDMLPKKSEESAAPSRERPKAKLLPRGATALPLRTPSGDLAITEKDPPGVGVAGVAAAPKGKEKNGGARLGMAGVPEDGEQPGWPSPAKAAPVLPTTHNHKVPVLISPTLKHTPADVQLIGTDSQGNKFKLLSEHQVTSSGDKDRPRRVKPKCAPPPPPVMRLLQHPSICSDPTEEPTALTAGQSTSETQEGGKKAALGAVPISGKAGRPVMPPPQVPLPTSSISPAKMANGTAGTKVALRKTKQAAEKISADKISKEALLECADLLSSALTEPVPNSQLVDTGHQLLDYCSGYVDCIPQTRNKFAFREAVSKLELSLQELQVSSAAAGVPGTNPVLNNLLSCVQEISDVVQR

PIM3 = PIM3 (Homo sapiens, UniProt Q86V86)
MST1 = MST1 (Homo sapiens, UniProt Q13043)
FER = FER (Homo sapiens, UniProt P16591)
LZK = target: T2, LZK (Homo sapiens, UniProt O43283)
T2 construct: T7 phage fusion (most assays) or DNA label after HEK293 expression; purchased DiscoveRx (KINOMEscan, LeadHunter Discovery services); host or cells: T7 phage in E. coli (BL21-derived) or HEK293

WEE1 = WEE1 (Homo sapiens, UniProt P30291)
LYN = LYN (Homo sapiens, UniProt P07948)
KIT (L576P) = KIT (L576P) (Homo sapiens, UniProt P10721, L576P)
ALK = ALK (Homo sapiens, UniProt Q9UM73)
Chain of ALK (Q9UM73 19-1620): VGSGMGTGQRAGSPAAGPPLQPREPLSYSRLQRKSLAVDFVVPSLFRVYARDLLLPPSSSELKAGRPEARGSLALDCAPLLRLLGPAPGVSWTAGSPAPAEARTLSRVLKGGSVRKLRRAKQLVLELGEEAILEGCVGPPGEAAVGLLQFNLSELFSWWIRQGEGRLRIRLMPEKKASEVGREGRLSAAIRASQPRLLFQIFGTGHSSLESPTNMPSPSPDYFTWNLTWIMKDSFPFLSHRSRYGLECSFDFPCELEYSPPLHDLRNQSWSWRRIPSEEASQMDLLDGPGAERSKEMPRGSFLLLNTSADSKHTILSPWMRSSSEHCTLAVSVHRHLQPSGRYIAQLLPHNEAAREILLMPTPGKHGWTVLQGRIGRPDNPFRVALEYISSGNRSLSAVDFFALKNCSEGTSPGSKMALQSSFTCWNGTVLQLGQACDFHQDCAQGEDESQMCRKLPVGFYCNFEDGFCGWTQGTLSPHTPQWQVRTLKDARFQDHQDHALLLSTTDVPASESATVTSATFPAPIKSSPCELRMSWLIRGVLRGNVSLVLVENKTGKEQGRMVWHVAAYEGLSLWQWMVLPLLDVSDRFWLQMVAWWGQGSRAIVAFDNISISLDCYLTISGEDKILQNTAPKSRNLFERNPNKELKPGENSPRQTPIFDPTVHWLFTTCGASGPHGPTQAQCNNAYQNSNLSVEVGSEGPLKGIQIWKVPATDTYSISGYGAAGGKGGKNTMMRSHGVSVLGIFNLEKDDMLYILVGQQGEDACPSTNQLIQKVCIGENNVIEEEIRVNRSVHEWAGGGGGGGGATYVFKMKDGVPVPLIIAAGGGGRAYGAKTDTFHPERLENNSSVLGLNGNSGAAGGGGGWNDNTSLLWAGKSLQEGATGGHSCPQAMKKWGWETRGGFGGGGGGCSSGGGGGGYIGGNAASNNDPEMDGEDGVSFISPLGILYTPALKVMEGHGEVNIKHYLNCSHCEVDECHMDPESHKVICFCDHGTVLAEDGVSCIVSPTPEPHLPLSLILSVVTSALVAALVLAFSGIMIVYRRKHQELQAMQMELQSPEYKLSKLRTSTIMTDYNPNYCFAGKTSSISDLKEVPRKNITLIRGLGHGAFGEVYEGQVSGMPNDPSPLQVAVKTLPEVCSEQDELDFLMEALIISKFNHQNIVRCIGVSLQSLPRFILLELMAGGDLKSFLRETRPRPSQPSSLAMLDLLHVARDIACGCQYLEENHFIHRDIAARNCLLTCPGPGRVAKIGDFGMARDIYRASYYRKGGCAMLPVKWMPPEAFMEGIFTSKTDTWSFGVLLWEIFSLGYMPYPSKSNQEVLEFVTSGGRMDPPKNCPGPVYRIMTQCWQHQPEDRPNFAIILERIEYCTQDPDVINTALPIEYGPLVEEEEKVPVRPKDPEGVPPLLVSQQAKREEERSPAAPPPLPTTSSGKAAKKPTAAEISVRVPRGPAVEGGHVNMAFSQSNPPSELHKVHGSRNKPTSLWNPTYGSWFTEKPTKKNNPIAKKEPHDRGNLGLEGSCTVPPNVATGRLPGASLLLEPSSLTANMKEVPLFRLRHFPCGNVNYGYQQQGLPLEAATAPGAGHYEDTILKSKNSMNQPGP

EGFR (G719C) = EGFR (G719C) (Homo sapiens, UniProt P00533, G719C)
ICK = ICK (Homo sapiens, UniProt Q9UPZ9)
JNK2 = JNK2 (Homo sapiens, UniProt P45984)
CSNK1G3 = CSNK1G3 (Homo sapiens, UniProt Q9Y6M4)
CAMK2G = CAMK2G (Homo sapiens, UniProt Q13555)
Chain of CAMK2G (Q13555 whole entry): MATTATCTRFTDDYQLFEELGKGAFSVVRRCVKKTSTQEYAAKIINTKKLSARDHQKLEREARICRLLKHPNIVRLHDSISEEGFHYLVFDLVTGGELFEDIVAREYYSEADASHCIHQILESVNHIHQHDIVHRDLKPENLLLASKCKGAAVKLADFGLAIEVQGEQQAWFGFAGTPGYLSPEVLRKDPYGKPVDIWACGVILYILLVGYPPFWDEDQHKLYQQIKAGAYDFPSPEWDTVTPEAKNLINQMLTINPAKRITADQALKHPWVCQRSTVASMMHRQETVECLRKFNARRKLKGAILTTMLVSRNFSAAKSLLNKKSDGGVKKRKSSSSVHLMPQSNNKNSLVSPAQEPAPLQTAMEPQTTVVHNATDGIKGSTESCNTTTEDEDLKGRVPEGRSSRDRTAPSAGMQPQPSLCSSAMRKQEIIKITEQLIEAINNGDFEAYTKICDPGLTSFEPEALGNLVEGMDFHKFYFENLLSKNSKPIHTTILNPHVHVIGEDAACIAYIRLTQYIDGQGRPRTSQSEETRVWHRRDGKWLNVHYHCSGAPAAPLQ

TIE2 = TIE2 (Homo sapiens, UniProt Q02763)

With Nc1ncc(-c2nc3ccccc3o2)c(-c2ccncc2)n1 [Comparative Compound 324, 5-(1,3-benzoxazol-2-yl)-4-(pyridine-4-yl)pyrimidin-2-amine] the remaining binding at 10 µM [1] was 44%, the remaining binding at 10 µM (PAK3) was 95% and the remaining binding at 10 µM (IKK-alpha) was 92%. For the same compound, the remaining binding at 10 µM (ASK2) was 99%, the remaining binding at 10 µM (NIK) was 100% and the remaining binding at 10 µM (AURKA) was 99%. It also gave a remaining binding at 10 µM (EPHA4) of 100%, a remaining binding at 10 µM (PKAC-alpha) of 91% and a remaining binding at 10 µM (CSNK1A1L) of 81%. The remaining binding at 10 µM (TAOK3) was 91%, the remaining binding at 10 µM (MAP4K4) was 97% and the remaining binding at 10 µM (PHKG2) was 100%. For the same compound, the remaining binding at 10 µM (TNIK) was 78%, the remaining binding at 10 µM (ADCK4) was 100% and the remaining binding at 10 µM (SNARK) was 98%. The remaining binding at 10 µM (SRPK3) was 99%, the remaining binding at 10 µM (CHEK1) was 100% and the remaining binding at 10 µM (STK39) was 100%. It also gave a remaining binding at 10 µM (LATS2) of 82%, a remaining binding at 10 µM (PIK3CA (M1043I)) of 100% and a remaining binding at 10 µM (SIK) of 100%. For the same compound, the remaining binding at 10 µM (EPHA7) was 87%, the remaining binding at 10 µM (GRK7) was 91% and the remaining binding at 10 µM (DCAMKL1) was 41%. For the same compound, the remaining binding at 10 µM [2] was 64%, the remaining binding at 10 µM (ROS1) was 100% and the remaining binding at 10 µM (MRCKB) was 100%. The remaining binding at 10 µM (ABL2) was 85%, the remaining binding at 10 µM (PIM3) was 94% and the remaining binding at 10 µM (MST1) was 92%. It also gave a remaining binding at 10 µM (FER) of 100%, a remaining binding at 10 µM (LZK) of 89% and a remaining binding at 10 µM (WEE1) of 100%. The remaining binding at 10 µM (LYN) was 99%, the remaining binding at 10 µM (KIT (L576P)) was 57% and the remaining binding at 10 µM (ALK) was 89%. The remaining binding at 10 µM (EGFR (G719C)) was 64%, the remaining binding at 10 µM (ICK) was 99% and the remaining binding at 10 µM (JNK2) was 18%. For the same compound, the remaining binding at 10 µM (CSNK1G3) was 83%, the remaining binding at 10 µM (CAMK2G) was 100% and the remaining binding at 10 µM (TIE2) was 98%.

With CNc1c(C(N)=O)c2ccccn2c1C(=O)c1ccc(F)cc1 [Compound A, 2-methyl-amino-3-[(4-fluorophenyl)carbonyl]indolizine-1-carboxamide] the remaining binding at 10 µM [1] was 23%, the remaining binding at 10 µM (PAK3) was 75% and the remaining binding at 10 µM (IKK-alpha) was 96%. It also gave a remaining binding at 10 µM (ASK2) of 100%, a remaining binding at 10 µM (NIK) of 100% and a remaining binding at 10 µM (AURKA) of 91%. It also gave a remaining binding at 10 µM (EPHA4) of 98%, a remaining binding at 10 µM (PKAC-alpha) of 42% and a remaining binding at 10 µM (CSNK1A1L) of 1.2%. The remaining binding at 10 µM (TAOK3) was 93%, the remaining binding at 10 µM (MAP4K4) was 86% and the remaining binding at 10 µM (PHKG2) was 91%. The remaining binding at 10 µM (TNIK) was 53%, the remaining binding at 10 µM (ADCK4) was 84% and the remaining binding at 10 µM (SNARK) was 91%. The remaining binding at 10 µM (SRPK3) was 92%, the remaining binding at 10 µM (CHEK1) was 85% and the remaining binding at 10 µM (STK39) was 81%. It also gave a remaining binding at 10 µM (LATS2) of 72%, a remaining binding at 10 µM (PIK3CA (M1043I)) of 100% and a remaining binding at 10 µM (SIK) of 83%. It also gave a remaining binding at 10 µM (EPHA7) of 82%, a remaining binding at 10 µM (GRK7) of 65% and a remaining binding at 10 µM (DCAMKL1) of 44%. For the same compound, the remaining binding at 10 µM [2] was 13%, the remaining binding at 10 µM (ROS1) was 100% and the remaining binding at 10 µM (MRCKB) was 100%. The remaining binding at 10 µM (ABL2) was 68%, the remaining binding at 10 µM (PIM3) was 90% and the remaining binding at 10 µM (MST1) was 84%. The remaining binding at 10 µM (FER) was 98%, the remaining binding at 10 µM (LZK) was 100% and the remaining binding at 10 µM (WEE1) was 94%. It also gave a remaining binding at 10 µM (LYN) of 54%, a remaining binding at 10 µM (KIT (L576P)) of 29% and a remaining binding at 10 µM (ALK) of 90%. For the same compound, the remaining binding at 10 µM (EGFR (G719C)) was 32%, the remaining binding at 10 µM (ICK) was 93% and the remaining binding at 10 µM (JNK2) was 45%. For the same compound, the remaining binding at 10 µM (CSNK1G3) was 85%, the remaining binding at 10 µM (CAMK2G) was 87% and the remaining binding at 10 µM (TIE2) was 100%.
